# Assay results reported in patent publication US20080293583A1, “Methods for diagnosing mood disorders” (Wyeth, priority 2003, published 2008).
# Test system: progenitor stem cells in the subgranular zone (SGZ) of the hippocampus
# Experiment: BrdU immunostaining, cell proliferation in hippocampal SGZ after chronic antidepressant
# Format: in vivo, rat
# Conditions: P<0.01; for number of proliferating (BrdU-positive) cells in the SGZ compared with saline-treated control rats: FIG. 1A, chronic administration; for increase in the proliferation rate of progenitor stem cells in the SGZ: versus saline controls, 2 week systemic administration, BrdU twice a day for 4 days, n=5
# Description: Antidepressant treatment and BrdU dosing. Dosing of adult male Sprague Dawley rats was performed as described above for 14 days (n=10 rats per group). To evaluate the effect of chronic antidepressant treatment on proliferation of progenitor stem cells, 24 hours after the last antidepressant injection, rats were administered BrdU (Sigma, St. Louis, Mo.) (50 mg/kg rig ip injection twice a day) for 4 days prior to euthanesia. To evaluate the effect of chronic antidepressant treatment on survival of progenitor stem cells, a sub-group of rats were allowed to live for 4 weeks after BrdU injection. All rats were perfused through the ascending aorta with 50 ml of 0.9% saline, followed by 400 ml of freshly prepared 4% paraformaldehyde in PBS (pH 7.5). After 30-60 minutes post-perfusion, rat brains were removed and postfixed in 4% paraformaldehyde in PBS overnight, followed by immersion in 30% sucrose/PBS solution for 48-72 hours at 4° C. Brains were rapidly frozen on dry-ice and stored at −80° C. Brain sectioning and staining for BrdU immunoreactivity were performed as previously described by Malberg et al. (2000). Briefly, serial coronal sections of each brain were cut (35 μm thickness) through the entire hippocampus (stereotaxic plates 26-40 according to Paxinos, Watson and Emson, 1980) using a freezing microtome. Every sixth section throughout the hippocampus was processed for BrdU staining. Free-floating sections were maintained in 100 mM PBS (about 100 sections per brain). DNA denaturation of the sections was performed as follows: sections were treated with 50% formamide/50% 2×SSC (0.3 M NaCl/0.03 M sodium citrate) for 2 hours at 65° C., rinsed in PBS (2 times for 5 minutes at room temperature), incubated with 2 N HCl for 30 minutes, followed by 0.1 M boric acid buffer (pH 8.5) for 10 minutes and a final rinse in PBS. For BrdU immunostaining, sections were incubated with 3% H2O2 in PBS for 30 minutes, rinsed in PBS and blocked with 3% normal horse serum in 0.01% TritonX-100 for 30 minutes. […] All BrdU labeled cells in the subgranular zone (SGZ) were counted in each section by an experimenter blinded to the study code. […] The total number of BrdU labeled cells per section were determined and multiplied by 12 to obtain the total number of cells per dentate gyrus. […]
# In vivo studies were performed to measure the effects of antidepressant drug treatment on adult hippocampal neurogenesis by immunological methods. […] The BrdU immunostaining and quantitative results indicated a significant increase (˜33%) in the proliferation rate of progenitor stem cells in the subgranular zone (SGZ) of the hippocampus for both venlafaxine (P<0.01; n=5) and fluoxetine (P<0.01; n=5) versus saline controls. […]
smiles,measurement,value
"CNCCC(Oc1ccc(C(F)(F)F)cc1)c1ccccc1 (stereo not shown) [Fluoxetine, fluoxetine]",number of proliferating (BrdU-positive) cells in the SGZ compared with saline-treated control rats,increased the number of proliferating cells in the SGZ
same,increase in the proliferation rate of progenitor stem cells in the SGZ,~33%
"COc1ccc(C(CN(C)C)C2(O)CCCCC2)cc1 (stereo not shown) [Venlafaxine, venlafaxine]",number of proliferating (BrdU-positive) cells in the SGZ compared with saline-treated control rats,increased the number of proliferating cells in the SGZ
same,increase in the proliferation rate of progenitor stem cells in the SGZ,~33%
